How the values were obtained:
Type in all cases: binding
AtD14 (DWARF14) [1] = target: T1, AtD14 (DWARF14) (Arabidopsis thaliana, UniProt Q9SQR3); assay: intrinsic tryptophan fluorescence Kd
T1 sequence (Q9SQR3 2-266): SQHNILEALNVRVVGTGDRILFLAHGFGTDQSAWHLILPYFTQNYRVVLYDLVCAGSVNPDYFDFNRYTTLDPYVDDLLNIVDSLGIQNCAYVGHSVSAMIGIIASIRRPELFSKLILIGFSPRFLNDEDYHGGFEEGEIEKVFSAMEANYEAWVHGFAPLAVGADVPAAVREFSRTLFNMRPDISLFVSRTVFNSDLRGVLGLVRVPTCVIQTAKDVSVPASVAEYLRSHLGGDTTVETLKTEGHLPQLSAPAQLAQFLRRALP

AtD14 (DWARF14) [2] = target: T1, AtD14 (DWARF14); assay: co-crystal structure
OsD14 = target: T2, OsD14 (Oryza sativa, UniProt Q10QA5); assay: nanoDSF Tm increase
T2 sequence (Q10QA5 1-318): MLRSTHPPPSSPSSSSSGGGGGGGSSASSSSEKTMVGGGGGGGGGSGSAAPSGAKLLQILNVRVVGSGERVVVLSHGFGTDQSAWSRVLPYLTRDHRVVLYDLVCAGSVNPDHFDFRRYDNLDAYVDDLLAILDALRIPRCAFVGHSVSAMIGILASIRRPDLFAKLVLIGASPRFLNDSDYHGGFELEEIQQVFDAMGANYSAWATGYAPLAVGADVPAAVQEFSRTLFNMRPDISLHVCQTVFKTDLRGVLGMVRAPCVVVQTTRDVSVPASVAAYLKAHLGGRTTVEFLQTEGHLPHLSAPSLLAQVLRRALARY

Kd (AtD14 (DWARF14) [1]) [µM] | Kd (AtD14 (DWARF14) [2]) [µM] | SMILES | nanoDSF Tm increase; tryptophan fluorescence (OsD14)
0.99 |  | CC1=CC(O/C=C2/C(=O)OC3c4ccccc4CC23)OC1=O (racemic) [(±)-GR24] | 
 | 1.8 | CC(=O)/C=C/C=C(C)/C=C/C1=C(C)CC(O)CC1(C)C (stereo in doubt) [zaxinone] | tryptophan fluorescence assays confirmed the direct interaction between OsD14 and zaxinone

Reference: PMC12491641 (Nature Communications, 2025)
